In PMC12630348, “Evidence of an activity-enhancing conformational shift in Arabidopsis thaliana plant cysteine oxidase 4 induced by binding of substrate or substrate-mimics” (The Journal of Biological Chemistry, 2025):

Legend:
recombinant AtPCO4 [1] = molecular target: T1, recombinant AtPCO4 (Arabidopsis thaliana, UniProt Q9SJI9); test: Substrate only assay: anaerobic preincubation of AtPCO4 with RAP2.12_2—17; type: biochemical
T1 construct: His tag followed by thrombin site (N); made in house; host or cells: E. coli BL21(DE3)
Experimental: The assay plate was immediately removed to aerobic conditions, initiating the reaction. Samples were taken at 0 s, 2 min, 5 min, 10 min, 15 min, and 20 min and quenched in 5% (v/v) formic acid.
(§1) Spectra were assessed manually in MassHunter Qualitative Analysis B.07.00 software (Agilent) to ensure the correct ion was chosen for peptide oxidation quantification. RapidFire Integrator.exe was used to integrate areas of product and substrate ions (ii) an Acquity Ultra-high performance liquid chromatography system (Waters) coupled to a Xevo G2-XS Q-ToF mass spectrometer (Waters) operated in positive electrospray mode. Instrument parameters, data acquisition and data processing were controlled by MassLynx V4.1 software (Waters). Source parameters were adjusted to maximize sensitivity and minimize fragmentation. […] TOF mass scan range 50.00—2500.00 Da. Spectra were assessed manually in MassLynx V4.1 software (Waters) to ensure the correct ion was chosen for peptide oxidation quantification. MassLynx V4.1 software (Waters) was used to integrate areas of product and substrate ions.
(§2) Integration values obtained by MS were subsequently used to quantify reaction turnover (μmol of substrate oxidized per mg of enzyme), and graphs were generated using Prism 10 (GraphPad).

recombinant AtPCO4 [2] = molecular target: T1, recombinant AtPCO4; test: AtPCO4 activity toward RAP2.12_2—17 after 6 min aerobic preincubation of enzyme with peptidomimetic or control peptide (time course, LC-MS); type: biochemical; details: 200 μM peptide, 6 min aerobic preincubation with 0.1 μM AtPCO4; 20 μM RAP2.12_2—17; 25 °C
Experimental: (§3) Recombinant AtPCO4 was expressed using BL21(DE3) Escherichia coli cells containing the plasmid pET-28a(+)-His-THROMBIN-AtPCO4, and purified using Ni^2+-affinity and size exclusion chromatography as described in ([59]). WT AtPCO4 along with AtPCO4 Cys190Ala and AtPCO4 ADO loop variants were purified using this method. WT AtPCO4 reactivity toward the peptidomimetics was assessed by incubating (0.1 μM) recombinant enzyme with (200 μM) peptidomimetic in assay buffer (assay buffer: 50 mM Bis-tris propane, 40 mM NaCl, pH 8) supplemented with 20 μM FeSO4, 1 mM ascorbate, 5 mM TCEP, at 25 °C for 20 min prior to quenching in 5% (v/v) formic acid.
(§4) Reaction samples taken at 0 s, 30 s, 60 s, 90 s, 2 min, 5 min, 10 min, 15 min, and 20 min intervals were quenched in 5% (v/v) formic acid.
as §1, §2

recombinant AtPCO4 [3] = molecular target: T1, recombinant AtPCO4; test: AtPCO4 activity toward RAP2.12_2—17 with peptidomimetic, without peptidomimetic-AtPCO4 preincubation; type: biochemical; details: 200 μM peptidomimetic, 0.1 μM AtPCO4, 20 μM RAP2.12_2—17, 25 °C
Experimental: To test the significance of the peptidomimetic-AtPCO4 preincubation step, the method above was modified so that either 0 or 400 μM peptidomimetic was instead in mixture (ii) (Fig. 9B). Mixtures were again incubated separately at 25 °C for 6 min before being combined in equal volumes, initiating the reaction. Samples were taken and quenched in 5% (v/v) formic acid.
as §1, §2

AtPCO4 Cys190Ala variant = test: Cys190Ala AtPCO4 variant activity toward RAP2.12_2—17 after preincubation with peptidomimetic; type: biochemical, Arabidopsis thaliana
Experimental: as §3, §4
Figure S15 Investigating the potential formation of a Cys190-Tyr192 activity-enhancing crosslink. […] Standard conditions: 5 mM TCEP, 20 μM FeSO4, 1 mM ascorbate, 25 °C. […] Error bars display S.D (n=3).

recombinant AtPCO4 [4] = molecular target: T1, recombinant AtPCO4; test: AtPCO4 activity toward RAP2.12_2—15 or RAP2.12_2—17 in the presence and absence of peptidomimetic 10 (Fig. S16); type: biochemical; details: 14-mer RAP2.12 substrate, slope of turnover against time (minutes)
Experimental: as §4
Standard conditions: 5 mM TCEP, 20 μM FeSO4, 1 mM ascorbate, 25 °C. Turnover calculated as μmol RAP2.122—15/17 oxidised per […] of AtPCO4 (data shown is not normalised). Error bars display S.D (n=3).

RAP2.12_2—17: 16-mer N-terminal L-Cys substrate peptide of AtPCO4 representing AtRAP2.12, purchased from GL Biochem (CGGAIISDFIPPPRSR; UniProt Q9SSA8 2-17, looked up, fragment)
x (slope between 5-15 min), Preincubation rxn (recombinant AtPCO4 [1]; 20 μM RAP2.12_2—17, 6 min anaerobic preincubation with 0.1 μM WT AtPCO4): 0.099
x (slope between 5-15 min), Preincubation rxn (recombinant AtPCO4 [1]; 50 μM RAP2.12_2—17, 6 min anaerobic preincubation with 0.1 μM WT AtPCO4): 0.275
x (slope between 5-15 min), No Preincubation (recombinant AtPCO4 [1]; 50 μM RAP2.12_2—17, no preincubation with AtPCO4 (anaerobic preparation)): 0.175
x (slope between 5-15 min), Preincubation rxn (recombinant AtPCO4 [1]; 100 μM RAP2.12_2—17, 6 min anaerobic preincubation with 0.1 μM WT AtPCO4): 0.34
x (slope between 5-15 min), No Preincubation (recombinant AtPCO4 [1]; 100 μM RAP2.12_2—17, no preincubation with AtPCO4 (anaerobic preparation)): 0.209
x (slope between 5-15 min), Preincubation rxn (recombinant AtPCO4 [1]; 200 μM RAP2.12_2—17, 6 min anaerobic preincubation with 0.1 μM WT AtPCO4): 0.303
x (slope between 5-15 min), No Preincubation (recombinant AtPCO4 [1]; 200 μM RAP2.12_2—17, no preincubation with AtPCO4 (anaerobic preparation)): 0.15

XGGAIISDFIPPPR [Peptidomimetic 1, 14-mer X… mimic of RAP2.12 with N-terminal X = D-Cys]
x (slope between 0-5 min), Peptidomimetic rxn / CP rxn (recombinant AtPCO4 [2]): 0.28

XGGAIISDFIPPPR [Peptidomimetic 2, 14-mer X… with N-terminal X = homocysteine]
x (slope between 0-5 min), Peptidomimetic rxn, no preincubation (recombinant AtPCO4 [3]): 0.05853

XGGAIISDFIPPPR [Peptidomimetic 3, 14-mer X… with N-terminal X = penicillamine]
x (slope between 0-5 min), Peptidomimetic rxn, no preincubation (recombinant AtPCO4 [3]): 0.01063

XGGAIISDFIPPPR [Peptidomimetic 4, 14-mer X… with N-terminal X = S-methyl cysteine (linear thioether)]
x (slope between 0-5 min), Peptidomimetic rxn / CP rxn (recombinant AtPCO4 [2]): 0.31

XGGAIISDFIPPPR [Peptidomimetic 6, 14-mer X… with N-terminal X = TM3C (thiomorpholine, cyclized thioether)]
x (slope between 0-5 min), Peptidomimetic rxn / CP rxn (recombinant AtPCO4 [2]): 0.18

XGGAIISDFIPPPR [Peptidomimetic 7, 14-mer X… with N-terminal X = 3MePro, Cys-analogue devoid of an amino group]
x (slope between 0-5 min), Peptidomimetic rxn, no preincubation (recombinant AtPCO4 [3]): 0.03853
x (slope between 0-5 min), Peptidomimetic rxn / CP rxn (recombinant AtPCO4 [2]): 0.78
increase in the initial rate of RAP2.12_2—17 oxidation between 0—5 min, Cys190Ala AtPCO4 variant (AtPCO4 Cys190Ala variant; 200 μM peptidomimetic, 6 min preincubation with 0.1 μM C190A AtPCO4, 20 μM RAP2.12_2—17, relative to control without peptidomimetic (=1), 25 °C, n = 3): 5.21 fold
Initial rate: x (slope between 0-5 min), Peptidomimetic rxn (AtPCO4 Cys190Ala variant; C190A AtPCO4, slope of turnover time course between 0-5 min): 0.4559

XGGAIISDFIPPPR [Peptidomimetic 8, 14-mer X… with N-terminal X = Nα-Me-Cys]
x (slope between 0-5 min), Peptidomimetic rxn, no preincubation (recombinant AtPCO4 [3]): 0.1162

XGGAIISDFIPPPR [Peptidomimetic 10, 14-mer X… with N-terminal X = Ser]
x (slope between 0-5 min), Peptidomimetic rxn (recombinant AtPCO4 [4]): 0.6491
x (slope between 0-5 min), Peptidomimetic rxn, no preincubation (recombinant AtPCO4 [3]): 0.07282

XGGAIISDFIPPPR [Peptidomimetic 11, 14-mer X… with N-terminal X = hSer]
x (slope between 0-5 min), Peptidomimetic rxn / CP rxn (recombinant AtPCO4 [2]): 0.29

XGGAIISDFIPPPR [Peptidomimetic 12, 14-mer X… with N-terminal X = AlG]
x (slope between 0-5 min), Peptidomimetic rxn, no preincubation (recombinant AtPCO4 [3]): 0.03158

XGGAIISDFIPPPR [Peptidomimetic 13, 14-mer X… with N-terminal X = Pra]
x (slope between 0-5 min), Peptidomimetic rxn / CP rxn (recombinant AtPCO4 [2]): 0.34
